From patent publication US7022737B2, “Manipulating nitrosative stress to kill pathologic microbes, pathologic helminths and pathologically proliferating cells or to upregulate nitrosative stress defenses” (Duke University, priority 1996, dated 2006)

How the values were obtained:
restenosis [1] = assay: Patients with coronary stenosis treated to prevent restenosis; type: in vivo; details: BSO 4 mmol/kg four times a day intracoronary for one week, 32P-implanted Palmaz-Schatz stent
[2] = biological target: T1, E. coli gamma-glutamylcysteine synthetase (Escherichia coli, UniProt P0A6W9); assay: Inactivation of E. coli gamma-GCS by homocysteine sulfoximines (preincubation with ATP, residual activity by coupled PK/LDH assay); type: biochemical; details: 100 μM inhibitor
T1 construct: made in house
Description: E. coli gamma-GCS was isolated from bacterial cells engineered to overexpress the enzyme; the isolation procedure was similar to that used previously to isolate mammalian gamma-GCS. […] The enzyme was assayed in reaction mixtures (final volume=1.0 ml) containing: 150 mM Tris·HCl, pH 8.2, 100 mM KCl, 25 mM MgCl2, 7.5 mM ATP, 7.5 mM phosphoenolpyruvate, 0.3 mM EDTA, 10 mM L-glutamate, 10 mM L-α-aminobutyrate (an L-cysteine analog), 0.3 mM NADH, 5 IU pyruvate kinase, and 5 IU lactate dehydrogenase. Reaction was initiated by adding gamma-GCS; in control studies, L-α-aminobutyrate was omitted from the reaction mixture. In this assay, pyruvate kinase (PK) and lactate dehydrogenase (LDH) are added in excess to detect formation of ADP, one of the products of the gamma-GCS reaction. The relevant enzyme reactions are shown as equations 1–3 below. Oxidation of NADH to NAD^+ is followed and quantitated spectrophotometrically at 340 nm (1 μmol oxidation gives ΔOD=−6.2) and is directly proportional to product formation by gamma-GCS. [drawing 2]
Inhibition by homocysteine sulfoximines was carried out by preincubating the E. coli gamma-GCS with potential inhibitors in the presence of ATP and then removing aliquots of that mixture at specific times and assaying for residual activity using the assay procedure described above. The preincubation reaction mixtures contained (final volume=400 μl) the following: 210 mM Tris·HCl, pH 8.2, 142 mM KCl, 36 mM MgCl2, 10 mM ATP, 0.4 mM EDTA, various amounts of sulfoximine, and gamma-GCS. At intervals, 50 μl aliquots were removed and added to 1.0 ml assay reaction mixtures to determine residual activity spectrophotometrically. Results of a study indicate that E. coli gamma-GCS loses about 27% of its activity over 30 minutes in the absence of added inhibitors; this loss of activity represents an inherent instability in the enzyme when incubated under these reaction conditions in this particular experiment. […]

[3] = system: metastatic malignant melanoma; assay: Patient with metastatic malignant melanoma; type: in vivo; details: L-buthionine-S-sulfoximine 2 mmol/kg p.o. every 4 hours and hydroxyurea 10 mg/kg p.o., one week
Description: A person […] and a history of surgery five years previously to remove malignant melanotic nevi from their upper back and chest is found to have blood in their stool on routine physical examination. […] The patient is administered L-buthionine-S-sulfoximine (2 mmol/kg) p.o. every 4 hours for one week and is given 10 mg/kg of hydroxyurea p.o. 1 hour after every third dose of L-buthionine-S-sulfoximine. […] The patient shown no further evidence of metastases during a six month follow-up.

restenosis [4] = assay: Patients with coronary stenosis treated to prevent restenosis; type: in vivo
Excerpt: BSO therapy is continued for one week.
A person with blue eyes and gray hair presents with chest pain. […] The patient undergoes balloon angioplasty and placement of a Palmaz-Schatz stent, which is P^32-implanted and coated with a cyclodextran polymer to which BSO is attached by an ester linkage.
A patient similar to the one described above undergoes balloon angioplasty and placement of a Palmaz-Schatz stent which is coated with cyclodextran polymer to which ethyl maleate is attached by an ester linkage. […]
A person with restenosis six months post angioplasty has a Palmaz-Schatz stent placed. The stent is coated with a porous polymer containing 10% of the siderophore ferrioxamine B and 0.1% each of interleukin-1 and interferon-gamma. The latter agents induce the local expression of the inducible isoform of nitric oxide synthase. […]

herpes labialis = assay: Patient with recurrent herpes labialis; type: in vivo; details: in Denavir (pencicyclovir cream), topically every two hours while awake
Excerpt: A homosexually active person developed a recurrent herpes labialis (cold sore) on their lips and face. Therapy with Denavir (pencicyclovir cream) that contains buthionine sulfoximine is applied topically every two hours while awake.

small cell lung cancer = assay: Patients with small cell lung cancer; type: in vivo; details: cyclophosphamide, NO-substituted doxirubicin IV and BSO 4 mmol/kg IV four times/day; chest X-ray in two months
Description: A person with a 80 pack-year history of smoking presents with hemoptosis and weight loss. […] The patient is given a combination therapy of cyclophosphamide (750 mg/m^2) plus NO-substituted doxirubicin (40 mg/m^2) and vincristine (2 mg) (all administered i.v.). The therapeutic regimen is repeated once at three weeks.
A person with a 20 pack/year history of smoking presents with cough. […] The patient receives cyclophosphamide (750 mg/m^2 and NO-substituted doxirubicin (administered IV)). The patient also receives L-buthionine-S-sulfoximine, i.e., BSO (4 mmol/kg IV four times/day).

T1 sequence (P0A6W9 whole entry): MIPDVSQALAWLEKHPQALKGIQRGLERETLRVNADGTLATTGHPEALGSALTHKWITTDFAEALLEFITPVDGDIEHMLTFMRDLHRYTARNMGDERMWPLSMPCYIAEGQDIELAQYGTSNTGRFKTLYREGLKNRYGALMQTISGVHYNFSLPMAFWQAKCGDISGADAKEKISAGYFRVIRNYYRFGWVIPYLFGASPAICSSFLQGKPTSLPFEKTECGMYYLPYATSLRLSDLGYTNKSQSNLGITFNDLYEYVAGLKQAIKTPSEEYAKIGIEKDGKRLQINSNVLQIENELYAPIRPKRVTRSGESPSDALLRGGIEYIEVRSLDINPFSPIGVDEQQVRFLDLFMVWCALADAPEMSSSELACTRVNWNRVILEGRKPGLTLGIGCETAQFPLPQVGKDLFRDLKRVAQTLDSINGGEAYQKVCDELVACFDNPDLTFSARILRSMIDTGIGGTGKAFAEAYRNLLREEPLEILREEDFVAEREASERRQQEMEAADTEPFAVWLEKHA

SMILES: CCCCS(=N)(=O)CC[C@H](N)C(=O)O (stereo partly drawn) [L-buthionine-S-sulfoximine]
- clinical outcome (restenosis [1]): repeat of their angiogram shows no restenosis
- inactivation of E. coli gamma-GCS ([2]; 10 min preincubation): 89%
- inactivation of E. coli gamma-GCS ([2]; 30 min preincubation): virtually complete inactivation
- reduction in size of metastatic tumor [3]: 30%
- clinical outcome (restenosis [4]; P^32-implanted stent coated with cyclodextran polymer with BSO attached by ester linkage): clinical restenosis does not occur
- clinical outcome (restenosis [4]; verapamil 80 mg three times a day p.o., BSO 4 mmol/kg i.v. four times a day, NO-releasing polymer stent): repeat angiogram at six months shows no restenosis
- mean duration of the lesion versus Denavir without BSO (herpes labialis): half the time shorter
- clinical outcome (small cell lung cancer): decrease in size of the mass
